Values of other authors, collected in patent publication US20060062853A1 (Medical Research Institute, priority 2004, published 2006).

Columns and labels:
[1] = such as juices
[2] = not given; remark: listed apart in the source

half-life in blood plasma: 1 to 1.5 h | stability in acidic solutions [1]: not stable | creatine lost from the cell ([2]; 70 kg male): approximately 2 grams per day | loss of creatine from skeletal muscle ([2]; skeletal muscle): about 3 % per day
Compound: CN(CC(=O)O)C(=N)N [creatine, N-(aminoiminomethyl)-N-methylglycine]
